{
  "source": "patent US20020197653A1",
  "about": "“System for detecting reporter gene expression” (priority 2001, published 2002)",
  "test_system": "NOS gene under the control of the Gal10 promoter (iNOS)",
  "experiment": "Small-molecule-induced expression of the NOS reporter gene in yeast, detected by bead-bound fluorescein-based NO sensor",
  "type": "cell-based",
  "conditions": "yeast culture in 96-well plates, galactose final concentration 100 mM, TENTAGEL sensor beads, fluorescent microscope with CCD camera",
  "procedure": "The lactone function of the sensor is effectively aminolysed at room temperature over 48 hours. The apparent loading achieved was about 10% (0.03 mmol/g), although it is possible that much lower loading was in fact achieved.\nWe have also obtained a yeast strain developed by Mansuy et al (Sari et al. Biochemistry 35(22):7204-7213, June 1996; incorporated herein by reference) in which transcription of the NOS gene is under the control of the Gal10 promoter and is therefore inducible (and is referred to as iNOS). We grew the yeast cells in glucose media (SGI medium containing 7 g/L yeast nitrogen base without amino acids, 1 g/L casamino acids, 20 g/L glucose, and 50 mg/L tryptophan, at 30 ° C.) so that expression of the iNOS gene was repressed. The cells were harvested and washed with medium lacking any sugar (7 g/L yeast nitrogen base without amino acids, 1 g/L casamino acids and 50 mg/L tryptophan), were resuspended in the same sugar-free medium, and were distributed into 96-well plates.\nThe TENTAGEL beads containing sensor were washed with CH2Cl2, THF, DMF, i-PrOH, MeOH, EtOH, and deionized water, and were dried. 10 μl of sensor beads in sugar-free medium were added to wells containing 170 μl of yeast culture (20-30 beads per well). […]",
  "data": [
    {"compound": "O=C[C@H](O)[C@@H](O)[C@@H](O)[C@H](O)CO", "note": "[galactose]", "values": [
      {"measurement": "color change of NO sensor beads exposed to induced cells (iNOS reporter expression)", "result": "distinct color change (green ->yellow)"}
    ]}
  ]
}
